Each structure is given as a SMILES string.

In general, inhibition refers to the percentage by which the read-out fell short of the control. High values mean strong suppression, low ones little suppression. A word on the IC50: it is the concentration at which inhibition is half-maximal. A high value points to lower potency.

Assay [1] has as its target T1, angiotensin II receptor subtype 1 (AT1) (Oryctolagus cuniculus, UniProt P34976).
T1 construct: from adrenal glands in rabbits; from tissue; host or cells: rabbit adrenal glands
T1 sequence (P34976 1-359): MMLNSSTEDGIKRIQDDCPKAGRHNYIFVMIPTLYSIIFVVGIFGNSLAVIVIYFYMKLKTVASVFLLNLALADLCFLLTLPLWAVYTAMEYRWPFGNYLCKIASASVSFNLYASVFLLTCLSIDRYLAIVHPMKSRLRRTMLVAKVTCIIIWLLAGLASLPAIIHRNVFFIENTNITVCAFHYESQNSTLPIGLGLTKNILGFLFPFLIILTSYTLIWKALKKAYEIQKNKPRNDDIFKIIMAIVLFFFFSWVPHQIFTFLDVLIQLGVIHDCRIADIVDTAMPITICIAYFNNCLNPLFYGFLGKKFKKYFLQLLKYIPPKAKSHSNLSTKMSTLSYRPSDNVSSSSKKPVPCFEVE
The experiment in a line: Binding to angiotensin II receptor subtype 1 (AT1). The conditions noted are these: 3H-angiotensin II tracer; for IC50: room temperature, 3 hours. On the set-up: species or system rabbits (adrenal glands). As to the method:
(§1) In this Example, the affinity to the angiotensin II receptor subtype 1 or subtype 2 was evaluated by a binding assay in accordance with the method described in Biochem. Pharmacol., 33, 4057-4062 (1984).
(§2) Specifically, the measurement of the total binding in the presence of each drug was performed as follows:
(§3) A mixture (final volume=0.25 ml) of a drug in a given concentration (the drug was dissolved in DMSO, and diluted to a double volume with a buffer attached to a drug discovery system to prepare sample for the assay; 0,025 ml), a tracer (0.025 ml), and receptors (0.2 ml) was incubated [in the case of the angiotensin II receptor subtype 1 (AT1), at room temperature for 3 hours, and in the case of the subtype 2 (AT2), at 37° C. for 1 hour]. Then, the reaction mixture was filtered with suction (GF/C filter was used in AT1, and GF/B filter was used in AT2). The filter papers after filtration with suction (the tracer bound to the receptors) were counted by a γ-well counter (ARC-500, Aloka). The non-specific bindings were measured by repeating the above method, except that a large excess amount of a displacer was added. The specific binding of the drug in the given concentration was calculated by subtracting the non-specific binding from the total binding, respectively.
(§4) In AT1 and AT2, the percentages to inhibit the bindings of radioactive ligands (tracer) to receptors by the drugs to be tested (IC50 value of concentration to show 50% inhibition, or binding inhibition % in 100 μM) were measured, using the drugs to be tested and control drugs in the given concentration.

Assay [2] has as its system kidney disease model rats. The experiment in a line: Action to survival time of kidney diseased animals. The format is in vivo, Sprague-Dawley female rats. The conditions noted are these: 20 mg/kg/day per os; observation eight weeks (upper limit); control 5.0. As to the method:
(§5) The compounds of the present invention and the reference substance were forcedly administered per os to kidney disease model rats, and the action to depress blood pressure was observed. The kidney disease model rats were prepared by ligature of branches of renal artery in accordance with the conventional method, that is, the left hilum renalis of Sprague-Dawley female rats was exposed under anesthesia, and one of four secondary branches of renal artery was left unligated, while the remaining three branches were ligated, respectively. After a week, the hilum renalis (artery, vein, and ureter) of the right kidney were further ligated to thereby prepare the rats whose renal function was lowered to approximately 1/8 of the normal function. Each group consisted of eight rats. The drugs to be tested (20 mg/kg) were administered to each administering group, and only water was administered to control group. After two days from the administration, the systolic blood pressure was measured by the tail cuff method using a blood pressure measuring apparatus (UR5000; Ueda).
The kidney disease model rats were prepared as in Example 21. Fifteen groups (8 rats per group) were prepared in a manner so that there was no major difference between the groups in the serum creatinine value and the urea nitrogen value indicating renal function. The rats in each group were allowed to freely take up feed and water. […] To the rats in the control group, only water was forcedly administered per os every day. If kidney diseases are aggravated, the rat will die of uremia. Thus, the survival time was observed as comprehensive indication of the improvement effect on the kidney diseases. The observation period was eight weeks. Thus if all rats survived, the average survival time is eight weeks and it is an upper limit.

The subject of assay [3] is kidney disease model rats. The assay can be described thus: Action to depress blood pressure in kidney disease model rats (tail cuff). Type of assay: in vivo, Sprague-Dawley female rats. The conditions noted are these: 20 mg/kg per os; after two days; control 210 mmHg. As to the method:
as §5

Assay [4] deals with kidney disease model rats. The assay can be described thus: Renal function indicatory value (action to kidney diseases). The format is in vivo, Sprague-Dawley female rats. Conditions: 20 mg/kg/day per os, two weeks; for Creatinine clearance (CCr): control 0.20; for Creatinine (serum, Scr): control 2.0; for Urea nitrogen (BUN): control 100. On the procedure: The kidney disease model rats were prepared by ligature of branches of renal artery in accordance with the conventional method, that is, the left hilum renalis of Sprague-Dawley female rats was exposed under anesthesia, and one of four secondary branches of renal artery was left unligated, while the remaining three branches were ligated, respectively. […] Each group consisted of eight rats. The drugs to be tested (20 mg/kg) were administered to each administering group, and only water was administered to control group. After two days from the administration, the systolic blood pressure was measured by the tail cuff method using a blood pressure measuring apparatus (UR5000; Ueda).
The kidney disease model rats were prepared as in Example 21. Fifteen groups (8 rats per group) were sleeked in a manner so that there were no major differences between each group in the serum creatinine value and the urea nitrogen value indicating renal function. The rats in each group were allowed to freely take up feed and water. […] To the rats in the control group, only water was forcedly administered per os every day. After two weeks, 0.2 ml of blood was collected from the carotid artery of the rat under anesthesia, and centrifuged to obtain serum. Using 25 μl of the serum, serum creatinine (Scr) was measured by a creatinine analytical instrument (Beckman). Using 10 μl of the serum, urea nitrogen (BUN) was measured by a BUN analytical instrument (Beckman). Creatinine clearance was evaluated as follows:
After serum creatinine measurement, rats were placed in urinary metabolic cages for 24 hours to collect urine. Urinary creatine concentration (Ucr) was measured by a creatinine analytical instrument, and total volume of urination (Uvol) was also measured. Creatinine clearance (CCr) was calculated by the following formula: [formula]

For assay [5], the target named is T2, angiotensin II receptor subtype 2 (AT2) (Bos taurus, UniProt G5E6F7).
T2 construct: from cerebellar cortex in bovine; from tissue; host or cells: bovine cerebellar cortex
T2 sequence (G5E6F7 1-362): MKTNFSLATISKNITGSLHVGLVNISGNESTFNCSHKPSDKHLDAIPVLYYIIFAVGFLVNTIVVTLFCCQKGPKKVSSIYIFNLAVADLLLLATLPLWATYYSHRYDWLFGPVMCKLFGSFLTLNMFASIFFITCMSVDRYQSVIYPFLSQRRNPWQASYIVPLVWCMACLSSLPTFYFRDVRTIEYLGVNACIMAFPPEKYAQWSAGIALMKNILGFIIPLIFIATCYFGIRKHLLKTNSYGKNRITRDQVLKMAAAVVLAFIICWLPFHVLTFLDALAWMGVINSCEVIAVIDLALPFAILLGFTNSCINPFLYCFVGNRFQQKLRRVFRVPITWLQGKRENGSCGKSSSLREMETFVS
The experiment in a line: Binding to angiotensin II receptor subtype 2 (AT2). The conditions noted are these: 125I-Tyr4-angiotensin II tracer, 37° C., 1 hour. On the set-up: species or system bovine (cerebellar cortex). On the procedure: as §1, §2, §3, §4
from cerebellar cortex in bovine
tracer: ^125 I-Tyr^4 -angiotensin II

Take `CCCCC(=O)Nc1c(NCc2ccccc2)ncnc1NCc1ccc(C(=O)O)cc1` [Compound No. 7, 4-[[(6-benzylamino-5-valeramido)pyrimidin-4-yl]aminomethyl]benzoic acid]: the inhibition at 100 µM in assay [1] worked out at 1%. The same compound had an Average survival time in assay [2] of 7.0 weeks. Further, the “Blood pressure (average systolic)” value in assay [3] is 208 mmHg. For the same compound, in assay [4], the “Creatinine clearance (CCr)” value is 0.33 mL/min; the “Creatinine (serum, Scr)” value turned out to be 1.6 mg/dL; the “Urea nitrogen (BUN)” value stood at 80 mg/dL. In assay [5], this compound displayed an inhibition at 100 µM of 0%.
Turning to `CCCCC(=O)Nc1c(NCc2ccc(C(=O)O)cc2)ncnc1N(C)Cc1ccccc1` [Compound No. 61, 4-[[(6-N-benzylmethylamino-5-valeramido)pyrimidin-4-yl]aminomethyl]benzoic acid], testing at 100 µM in assay [1] gave an inhibition of 42%. The compound also returned an Average survival time in assay [2] of 6.9 weeks. The “Blood pressure (average systolic)” value in assay [3] worked out at 205 mmHg. Further, in assay [4], the “Creatinine clearance (CCr)” value was found to be 0.32 mL/min; the “Creatinine (serum, Scr)” value is 1.6 mg/dL; the “Urea nitrogen (BUN)” value came out at 81 mg/dL. The inhibition at 100 µM in assay [5] turned out to be 0%.
Turning to `CCCCC(=O)Nc1c(NCCc2ccccc2)ncnc1NCc1ccc(C(=O)O)cc1` [Compound No. 8, 4-[[(6-phenethylamino-5-valeramido)pyrimidin-4-yl]aminomethyl]benzoic acid], the inhibition at 100 µM in assay [1] came to 0%. In assay [2], this compound showed an Average survival time of 7.1 weeks. Besides, the “Blood pressure (average systolic)” value in assay [3] worked out at 203 mmHg. Further, in assay [4], the “Creatinine clearance (CCr)” value worked out at 0.33 mL/min; the “Creatinine (serum, Scr)” value came to 1.6 mg/dL; the “Urea nitrogen (BUN)” value came to 79 mg/dL. For the same compound, the inhibition at 100 µM in assay [5] came to 0%.
For `CCCCC(=O)Nc1c(NCc2ccc(OC)cc2)ncnc1NCc1ccc(C(=O)O)cc1` [Compound No. 10], testing at 100 µM in assay [1] gave an inhibition of 6%. The compound further yielded an Average survival time in assay [2] of 7.0 weeks. Further, the “Blood pressure (average systolic)” value in assay [3] is 208 mmHg. Moreover, in assay [4], the “Creatinine clearance (CCr)” value turned out to be 0.33 mL/min; the “Creatinine (serum, Scr)” value came to 1.6 mg/dL; the “Urea nitrogen (BUN)” value amounted to 81 mg/dL. The inhibition at 100 µM in assay [5] came to 0%.
In assay [1], `CCCCC(=O)Nc1c(NCc2ccc(C(=O)O)cc2)ncnc1OC` [compound 2, 4-[[(6-methoxy-5-valeramido)pyrimidin-4-yl]aminomethyl]benzoic acid] yielded an IC50 of 28 µM. The Average survival time in assay [2] was determined as 7.5 weeks. In addition, the “Blood pressure (average systolic)” value in assay [3] is 201 mmHg. In assay [4], the “Creatinine clearance (CCr)” value came out at 0.35 mL/min; the “Creatinine (serum, Scr)” value turned out to be 1.6 mg/dL; the “Urea nitrogen (BUN)” value came to 78 mg/dL. The compound also displayed an inhibition at 100 µM in assay [5] of 0%.
In assay [1], `CCCCC(=O)Nc1c(NCCCc2ccccc2)ncnc1NCc1ccc(C(=O)O)cc1` [Compound No. 9, 4-[[(6-phenylpropylamino-5-valeramido)pyrimidin-4-yl]aminomethyl]benzoic acid] showed an inhibition at 100 µM of 6%. In assay [2], this compound displayed an Average survival time of 6.9 weeks. Also, in assay [3], the “Blood pressure (average systolic)” value amounted to 204 mmHg. Moreover, in assay [4], the “Creatinine clearance (CCr)” value is 0.31 mL/min; the “Creatinine (serum, Scr)” value was determined as 1.6 mg/dL; the “Urea nitrogen (BUN)” value stood at 80 mg/dL. The compound further registered an inhibition at 100 µM in assay [5] of 0%.
`CCCCC(=O)Nc1c(Cl)ncnc1NCc1ccc(OC)cc1` [Compound No. 48, 4-[[(6-Chloro-5-Valeramido)pyrimidin-4-yl]aminomethyl]anisole] yielded an inhibition at 100 µM in assay [1] of 0%. Also, the Average survival time in assay [2] is 6.9 weeks. Also, the “Blood pressure (average systolic)” value in assay [3] came out at 207 mmHg. In assay [4], the “Creatinine clearance (CCr)” value was determined as 0.30 mL/min; the “Creatinine (serum, Scr)” value came out at 1.7 mg/dL; the “Urea nitrogen (BUN)” value worked out at 83 mg/dL. The compound further registered an inhibition at 100 µM in assay [5] of 0%.
Compound `CCCCC(=O)Nc1c(NCc2ccccc2)ncnc1NCc1ccc(OC)cc1` [Compound No. 89, 4-[[(6-benzylamino-5-valeramido)pyrimidin-4-yl]aminomethyl]anisole] had an inhibition at 100 µM in assay [1] of 11%. This compound also had an Average survival time in assay [2] of 7.0 weeks. Further, in assay [3], the “Blood pressure (average systolic)” value is given as 204 mmHg. Besides, in assay [4], the “Creatinine clearance (CCr)” value amounted to 0.33 mL/min; the “Creatinine (serum, Scr)” value is 1.6 mg/dL; the “Urea nitrogen (BUN)” value came to 80 mg/dL. The inhibition at 100 µM in assay [5] is 0%.
As for `CCCCC(=O)Nc1c(NCc2ccc(C(=O)O)cc2)ncnc1OCc1ccccc1` [Compound No. 11, 4-[[(6-benzyoloxy-5-valermido)pyrimidin-4-yl]aminomethyl]benzoic acid], the IC50 in assay [1] stood at 15 µM. Further, in assay [2], the Average survival time stood at 7.5 weeks. For the same compound, the “Blood pressure (average systolic)” value in assay [3] was determined as 202 mmHg. In assay [4], the “Creatinine clearance (CCr)” value was determined as 0.35 mL/min; the “Creatinine (serum, Scr)” value amounted to 1.6 mg/dL; the “Urea nitrogen (BUN)” value is 78 mg/dL.
